Assay results as given in patent US7335815B2, “Nucleic acid sequences to proteins involved in isoprenoid synthesis” (Calgene LLC, priority 1999, dated 2008).

Key:
[1] = system: E. coli strain JC7623dxr:CAT; experiment: growth of dxr-disrupted E. coli strain JC7623dxr:CAT (ME auxotrophy, complementation studies); assay type: cell-based, Escherichia coli; settings: strain JC7623dxr:CAT carrying plasmid pBAD-DXR or pBAD-GFPuv
Text: The region extending from the 5′-region of the dxr gene to the 3′-flanking region of the yaeS gene was amplified by PCR using genomic DNA isolated from the wild type E. coli strain-W3110 (Kohara et al., 1987) and the primers P1(5′-CTCTGGATGT CATATGAAGCAACTC-3′ (SEQ ID NO:3); the underlined ATG corresponds to the translation start codon of the dxr gene) and P2 (5′-CCGCATAACACCGCCAACC-3′ (SEQ ID NO:4); located at the 3′-flanking region of the yaeS gene). The reaction mixture for the PCR was prepared in a final volume of 50 μl, containing the DNA template (100 ng), 0.5 μM of each primer, 200 μM of each deoxynucleoside triphosphate, 20 mM of Tris-HCl adjusted to pH 8.8, 2 mM Of MgSO4, 10 mM of KCI, 10 mM of (NH4)2SO4, 0.1 mg/ml of BSA and 0.1% Triton X-100. The sample was covered with mineral oil, incubated at 94° C. for 3 min and cooled to 80° C. Pfu DNA polymerase (1.25 units, Stratagene) was added and the reaction mixture was incubated for 30 cycles consisting of 45 sec at 94° C., 45 sec at 59° C. and 10 min at 72° C., followed by a final step of 10 min at 72° C. After amplification, adenines were added to the 3′ ends of the PCR product as indicated by the manufacturers protocol and the adenylated product was cloned into the pGEM-T vector (Promega), to create plasmid pMJ1. […]

[2] = background statement; cited from earlier work

| Compound | growth of strain on medium containing the substance [1] | vitamin E activity [2] |
| --- | --- | --- |
| C[C@](O)(CO)[C@H](O)CO [ME, 2-C-methyl-D-erythritol] | grows on medium containing ME | – |
| Cc1c(C)c2c(c(C)c1O)CC[C@@](C)(CCC[C@H](C)CCC[C@H](C)CCCC(C)C)O2 [d-α-tocopherol] | – | 1.49 IU/mg |
| Cc1c(C)c2c(c(C)c1O)CCC(C)(CCCC(C)CCCC(C)CCCC(C)C)O2 (stereo not drawn) [synthetic α-tocopherol, d,l-α-tocopherol] | – | 1.1 IU/mg |
